From PubChem BioAssay (NCI)
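Dose response: 5 concentrations. Exposure: 48 h. Format: 96-well plates. Endpoint: linear interpolation; highest concentration if not reached. GI50 is the concentration that inhibits growth by half. The concentration for full growth arrest is given as TGI.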

Tested on: MDA-MB-468 breast
Test: NCI anticancer screen, dose series, 48 h

SMILES | GI50 [nM] | TGI [µM]
CCN1C(=O)N(c2ccccc2)C2NC(=S)N(/N=C/C=C/c3ccccc3OC)C21 (stereo unspecified) | 114 | 14.2
Nc1cc(NN=C(c2ccc(O)cc2)c2ccc(O)cc2)c([N+](=O)[O-])cc1[N+](=O)[O-] | 2190 | 4.82
Nc1ccccc1SC(CC(=O)c1ccccc1)c1cccc([N+](=O)[O-])c1 (stereo unspecified) | 15400 | 31.3
C=C1C(=O)O[C@H]2[C@H]1CC/C(COC(=O)NCc1ccc(Cn3c(=O)sn(-c4ccc(OC)cc4)c3=O)cc1)=C\CC[C@@]1(C)O[C@@H]21 | 1530 | 3.54
O=C(N/N=C/c1ccc[nH]1)c1[nH]c2ccc(Br)cc2c1-c1ccccc1 | 196 | 1.15
CCN(Cc1ccc(F)cc1)c1cc(Cl)c(CO)c(Cl)c1 | 1890 | 6.34
CCN(C(=O)N1CCN(c2cc3c(cc2F)c(=O)c(C(=O)O)cn3C2CC2)CC1)c1nc(-c2ccc(Cl)cc2)cs1 | 1490 | 6.79
CN1CC[C@@H](NC(=O)Nc2ccc(C#N)cc2)C[C@@H]1c1nc2ccccc2[nH]1 | 43300 | > 100
O=C1c2cc3c(cc2-c2c1c1ccc(F)cc1c(=O)n2C[C@H](O)[C@@H](O)[C@H](O)CO)OCO3 | 27.4 | 0.0759
COc1cccc(C(=O)NC(c2ccc(C)cc2)c2cc(Cl)c3cccnc3c2O)c1 (stereo unspecified) | 397 | 2.72
O=C(/C(=C/c1ccc([N+](=O)[O-])cc1)SCc1ccccc1)c1ccc(Cl)cc1 | 2250 | 5.83
COc1cc(-c2ccc3cc(OC)c(OC)c(OC)c3c2)cc(OC)c1OC | 3300 | > 100
COC[C@H]1Cn2cc(-c3nc(Nc4ccnn4C)ncc3C)nc2C(=O)N1Cc1ccc(F)c(F)c1 | 26300 | > 100
